Laboratory results reported in US20140234253A1, “Combination Treatments For Hepatitis C” (GlaxoSmithKline LLC, priority 2011, published 2014).
Converted amounts (≈) assume the structure as drawn.

Experiment: solubility of suspension in buffer
Assay type: physicochemical
Conditions: aqueous buffer; in the buffer at 37° C. when implanted

solubility: ~19 µg/mL (≈ 43.7 µM)
Compound: CC1(C)O[C@@H]2C[C@H]3[C@@H]4CCC5=CC(=O)C=C[C@]5(C)[C@@]4(F)[C@@H](O)C[C@]3(C)[C@]2(C(=O)CO)O1 [triamcinolone acetonide]
